Source: patent publication US8044204B2, “8-methoxy-9H-isothiazolo[5,4-b]quinoline-3,4-diones and related compounds as anti-infective agents” (Achillion Pharmaceuticals, Inc., priority 2005, dated 2011)

What was measured:
Assay type in all cases: cell-based
S. aureus ATCC 29213 = test: Minimum Inhibitory Concentration (MIC) assay, S. aureus; conditions: Staphylococcus aureus, ATCC29213; broth microdilution; read-out: MIC against S. Aureus
Experimental: (§1) The antimicrobial activity of the compounds of the invention may be evaluated by a number of methods, including the following visual minimum inhibitory concentration (MIC) assay. This assay determines the minimum concentration of compound required to inhibit growth of a bacterial strain.
(§2) Minimum Inhibitory Concentration (MIC) Assay
(§3) Whole-cell antibacterial activity is determined by broth microdilution using conditions recommended by the NCCLS (see National Committee for Clinical Laboratory Standards. 2001. Performance standards for antimicrobial susceptibility testing: 11th informational supplement. Vol. 21, no. 1, M100-S11. National Committee for Clinical Laboratory Standards, Wayne, Pa.). Test compounds are dissolved in DMSO and diluted 1:50 in Mueller-Hinton II broth (Becton-Dickinson) to produce a 256 μg/ml stock solution. In a 96-well microtiter plate, the compound solution is serially two-fold diluted in Mueller-Hinton II broth. After the compounds are diluted, a 50 μl aliquot of the test organism (˜1×10^6 cfu/mL) is added to each well of the microtiter plate. The final test concentrations ranges from 0.125-128 μg/mL. Inoculated plates are incubated in ambient air at 37° C. for 18 to 24 hours. The organisms selected for testing included laboratory strains S. aureus ATCC 29213 and E. coli ATCC 25922 (strains purchased from American Type Culture Collection, Manassas, Va.), S. aureus FQR700699, and Paeruginosa 27853. The minimum inhibitory concentration (MIC) is determined as the lowest concentration of compound that inhibited visible growth of the test organism.

E. coli ATCC 25922 = test: Minimum Inhibitory Concentration (MIC) assay, E. coli; conditions: Escherichia coli, ATCC25922; broth microdilution; read-out: MIC against E. coli
Experimental: as §1, §2, §3

MRSA strain ATCC 700699 = test: Minimum Inhibitory Concentration (MIC) assay, Methicillin Resistant S. Aureus; conditions: Staphylococcus aureus; broth microdilution; read-out: MIC against Methicillin Resistant S. Aureus
From the text: It has been unexpectedly discovered that substitution of compounds of Formula I and Formula II with a methoxy substituent at the R8 position increases the anti-microbial activity of the compound against Methicillin resistant Staphylococcus Aureus bacteria while at the same time decreasing the cellular toxicity of the compound. The simultaneous increase in compound activity and decrease in compound toxicity provides a greater therapeutic range for compounds of Formula I and Formula II in which R8 is methoxy; i.e. the range of doses of such compounds that will produce beneficial effects without harmful side effects is increased. […] Therapeutic range is determined using a standard assay of cytotoxicity such as the Alamar blue assay provided in Example 10.
as §1, §2, §3

MIC (S. aureus ATCC 29213) | MIC (E. coli ATCC 25922) | MIC (MRSA strain ATCC 700699) | SMILES
≤ 1 µg/mL | ≤ 1 µg/mL | – | CCn1c2cc(N3CCSCC3)c(F)cc2c(=O)c2c(=O)[nH]sc21 [Compound 37, 9-ethyl-6-fluoro-7-thiomorpho-linoiso-thiazolo[5,4-b]quinoline-3,4(2H,9H)-dione]
≤ 1 µg/mL | ≤ 1 µg/mL | – | O=c1[nH]sc2c1c(=O)c1cc(F)c(N3CCC4(CC3)OCCO4)cc1n2C1CC1 [Compound 39]
≤ 1 µg/mL | ≤ 1 µg/mL | – | O=C1CCN(c2cc3c(cc2F)c(=O)c2c(=O)[nH]sc2n3C2CC2)CC1 [Compound 40, 9-cyclopropyl-6-fluoro-7-(4-oxo-piperidin-1-yl)isothia-zolo[5,4-b]quinoline-3,4(2H,9H)-dione]
≤ 1 µg/mL | ≤ 1 µg/mL | – | CC(=O)N1CCN(c2cc3c(cc2F)c(=O)c2c(=O)[nH]sc2n3C2CC2)CC1 [Compound 44, 7-(4-acetyl-piperazin-1-yl)-9-cyclo-propyl-6-fluoroiso-thiazolo[5,4-b]quinoline-3,4(2H,9H)-dione]
≤ 1 µg/mL | – | ≤ 1 µg/mL | CCn1c2s[nH]c(=O)c2c(=O)c2cc(F)c(N3CC[C@@H](C(C)(C)N)C3)c(OC)c21 [Compound 59, (R)-7-(3-(2-aminopropan-2-yl)pyrrolidin-1-yl)-9-ethyl-6-fluoro-8-methoxyiso-thiazolo[5,4-b]quinoline-3,4(2H,9H)-dione]
≤ 1 µg/mL | ≤ 1 µg/mL | – | COc1c(N2C[C@H]3CCCN[C@H]3C2)ccc2c(=O)c3c(=O)[nH]sc3n(C3CC3)c12 [Compound 78, 9-cyclopropyl-8-methoxy-7-((4aR,7aR)octahydro-pyrrolo[3,4-b]pyridin-6-yl)isothia-zolo[5,4-b]quinoline-3,4(2H,9H)-dione]
≤ 1 µg/mL | ≤ 1 µg/mL | – | COc1c(N2CC[C@@H](C(C)N(C)C)C2)c(F)cc2c(=O)c3c(=O)[nH]sc3n(C3CC3)c12 (stereo partly drawn) [Compound 81, (R)-9-cyclo-propyl-7-(3-(1-(di-methylamino)ethyl)pyrrolidin-1-yl)-6-fluoro-8-methoxyiso-thiazolo[5,4-b]quinoline-3,4(2H,9H)-dione]
≤ 1 µg/mL | ≤ 1 µg/mL | – | COc1c(N2CC[C@@H](C(C)(C)N(C)C)C2)c(F)cc2c(=O)c3c(=O)[nH]sc3n(C3CC3)c12 [Compound 82, (R)-9-cyclo-propyl-7-(3-(2-(dimethyl-amino)propan-2-yl)pyrrolidin-1-yl)-6-fluoro-8-methoxyiso-thiazolo[5,4-b]quinoline-3,4(2H,9H)-dione]
≤ 1 µg/mL | ≤ 1 µg/mL | – | COc1cc2c(=O)c3c(=O)[nH]sc3n(C3CC3)c2c(F)c1N1CC[C@@H](C(C)(C)N)C1 [Compound 83, (R)-7-(3-(2-aminopropan-2-yl)pyrrolidin-1-yl)-9-cyclopropyl-8-fluoro-6-methoxyiso-thiazolo[5,4-b]quinoline-3,4(2H,9H)-dione]
≤ 1 µg/mL | ≤ 1 µg/mL | – | COc1c(N2CC[C@@H](CN(C)C)C2)c(F)cc2c(=O)c3c(=O)[nH]sc3n(C3CC3)c12 [Compound 86, (S)-9-cyclo-propyl-7-(3-((dimethyl-amino)methyl)pyrrolidin-1-yl)-6-fluoro-8-methoxyiso-thiazolo[5,4-b]quinoline-3,4(2H,9H)-dione]
≤ 1 µg/mL | ≤ 1 µg/mL | – | COc1c(N2CC[C@H](CN)C2)ccc2c(=O)c3c(=O)[nH]sc3n(C3CC3)c12 [Compound 90, (R)-7-(3-(aminomethyl)-pyrrolidin-1-yl)-9-cyclopropyl-8-methoxyiso-thiazolo[5,4-b]quinoline-3,4(2H,9H)-dione]
≤ 1 µg/mL | – | ≤ 1 µg/mL | CC[C@@H](NC)[C@@H]1CCN(c2c(F)cc3c(=O)c4c(=O)[nH]sc4n(C4CC4)c3c2OC)C1 [Compound 92, 9-cyclopropyl-6-fluoro-8-methoxy-7-((R)-3-((R)-1-(methylamino)-propyl)pyrrolidin-1-yl)isothia-zolo[5,4-b]quinoline-3,4(2H,9H)-dione]
≤ 1 µg/mL | ≤ 1 µg/mL | – | COc1c(N2CC[C@@H](CNC3CC3)C2)ccc2c(=O)c3c(=O)[nH]sc3n(C3CC3)c12 [Compound 101, (S)-9-cyclo-propyl-7-(3-((cyclopropyl-amino)methyl)-pyrrolidin-1-yl)-8-methoxyiso-thiazolo[5,4-b]quinoline-3,4(2H,9H)-dione]

Second part, the molecule before the results:

SMILES | MIC (S. aureus ATCC 29213) | MIC (E. coli ATCC 25922) | MIC (MRSA strain ATCC 700699)
CCn1c2cc(N3CCC(N(C)C)C3)c(F)cc2c(=O)c2c(=O)[nH]sc21 (stereo not shown) [Compound 34, 7-(3-(dimethyl-amino)pyrrolidin-1-yl)-9-ethyl-6-fluoroisothia-zolo[5,4-b]quinoline-3,4(2H,9H)-dione] | ≤ 1 µg/mL | ≤ 1 µg/mL | –
CCn1c2cc(NCc3ccncc3)c(F)cc2c(=O)c2c(=O)[nH]sc21 [Compound 35, 9-ethyl-6-fluoro-7-(pyridin-4-ylmethylamino) isothiazolo[5,4-b]quinoline-3,4(2H,9H)-dione] | ≤ 1 µg/mL | ≤ 1 µg/mL | –
CCn1c2cc(N3CCN(CCN(C)C)CC3)c(F)cc2c(=O)c2c(=O)[nH]sc21 [Compound 36, 7-(4-(2-(dimethyl-amino)ethyl)piperazin-1-yl)-9-ethyl-6-fluoroisothia-zolo[5,4-b]quinoline-3,4(2H,9H)-dione] | ≤ 1 µg/mL | ≤ 1 µg/mL | –
O=c1[nH]sc2c1c(=O)c1cc(F)c(N3CCC(O)CC3)cc1n2C1CC1 [Compound 41, 9-cyclopropyl-6-fluoro-7-(4-hydroxy-piperidin-1-yl)isothia-zolo[5,4-b]quinoline-3,4(2H,9H)-dione] | ≤ 1 µg/mL | ≤ 1 µg/mL | –
COc1c(N2CCC(CN)C2)c(F)cc2c(=O)c3c(=O)[nH]sc3n(C3CC3)c12 (stereo not shown) [Compound 66, 7-(3-(aminomethyl)-pyrrolidin-1-yl)-9-cyclopropyl-6-fluoro-8-methoxyiso-thiazolo[5,4-b]quinoline-3,4(2H,9H)-dione] | ≤ 1 µg/mL | – | ≤ 1 µg/mL
CNC(C)(C)[C@@H]1CCN(c2ccc3c(=O)c4c(=O)[nH]sc4n(C4CC4)c3c2OC)C1 [Compound 79, (R)-9-cyclo-propyl-8-methoxy-7-(3-(2-(methyl-amino)propan-2-yl)pyrrolidin-1-yl)isothia-zolo[5,4-b]quinoline-3,4(2H,9H)-dione] | ≤ 1 µg/mL | ≤ 1 µg/mL | –
COc1cc2c(=O)c3c(=O)[nH]sc3n(C3CC3)c2c(F)c1N1CC[C@@H](CN)C1 [Compound 85, (S)-7-(3-(aminomethyl)-pyrrolidin-1-yl)-9-cyclo-propyl-8-fluoro-6-methoxyiso-thiazolo[5,4-b]quinoline-3,4(2H,9H)-dione] | ≤ 1 µg/mL | ≤ 1 µg/mL | –
COc1c(N2CC(N)C2)c(F)cc2c(=O)c3c(=O)[nH]sc3n(C3CC3)c12 [Compound 105, 7-(3-amino-azetidin-1-yl)-9-cyclopropyl-6-fluoro-8-methoxyiso-thiazolo[5,4-b]quinoline-3,4(2H,9H)-dione] | ≤ 1 µg/mL | ≤ 1 µg/mL | –
CCNC1CN(c2c(F)cc3c(=O)c4c(=O)[nH]sc4n(C4CC4)c3c2OC)C1 [Compound 106, 9-cyclopropyl-7-(3-(ethylamino)-azetidin-1-yl)-6-fluoro-8-methoxyiso-thiazolo[5,4-b]quinoline-3,4(2H,9H)-dione] | ≤ 1 µg/mL | ≤ 1 µg/mL | –
CN[C@H](C)[C@@H]1CCN(c2c(F)cc3c(=O)c4c(=O)[nH]sc4n(C4CC4)c3c2OC)C1 [Compound 107, 9-cyclopropyl-6-fluoro-8-methoxy-7-((R)-3-((R)-1-(methyl-amino)ethyl)pyrrolidin-1-yl)isothia-zolo[5,4-b]quinoline-3,4(2H,9H)-dione] | ≤ 1 µg/mL | – | ≤ 1 µg/mL
